According to patent US9586993B2, “CD44v6-derived peptides for treating pancreatic cancer” (AMCURE GMBH, priority 2012, dated 2017):
“Also recorded” adds a separate entry of the source. No end group written: not given here. *: point of attachment. DOTA = O=C(O)CN1CCN(CC(=O)O)CCN(CC(=O)*)CCN(CC(=O)O)CC1; PEG2000 = polyethylene glycol, 2000 Da; Myristoyl = CCCCCCCCCCCCCC(=O)*

What was measured:
[1] = system: L3.6p1 pancreatic carcinoma cells; experiment: Human orthotopic model, L3.6p1 cells in the pancreas of nude mice; type: in vivo, mouse; settings: for metastasis formation (liver): 20 μg per injection i.p. three times per week; for metastasis formation (liver) / outgrowth / size of the primary tumor: start one week after implantation; for outgrowth / size of the primary tumor: 20 μg per injection i.p. three times per week for three weeks
Method: In the case of the human orthotopic model, L3.6p1 pancreatic carcinoma cells (passage 24-26) were suspended in Hank's balanced salt solution (Invitrogen, Karlsruhe, Germany) after trypsinization. The cells were injected orthotopically in the pancreas of male nude mice as described (Bruns C J et al. (1999) Neoplasia 1(1):50-62). Two groups of 15 mice each were injected i.p. 7 days later with either the human v6 peptide respectively rat control peptide (20 μg). For all experiments described and depicted herein either the rat 14mer control peptide or the human 14mer peptide were used. All experiments were then repeated with the rat 5mer control peptide or the human 5mer peptide (N-R-W-H-E, SEQ ID NO: 2). […] The injection was repeated three times per week for 21 days. Two days after the last treatment the animals were killed.
(§1) 7 μm thick paraffin sections were deparaffinized and rehydrated. For P-Met staining antigen unmasking was achieved by boiling the slides in 1 mM EDTA pH 8.0 followed by incubation for 15 minutes at a sub-boiling temperature, for CD31 staining the sections were treated with Proteinase K (8 μg/ml) for 10 min at 37° C. For immunofluorescence staining of P-Met, unspecific binding was blocked with 5% goat serum (DAKO, Glostrup, Denmark) (diluted in 1×PBS/0.3% Triton X-100) for 60 minutes. In the case of immunohistochemistry, endogenous peroxidases were at first blocked with 3% H2O2 in PBS followed by incubation with biotin blocking system (Dako, Glostrup, Denmark) and then unspecific binding was inhibited by incubation with 5% FCS in PBS. The sections were incubated with the P-Met antibody (D26, dilution 1:50 in 1×PBS/1% BSA/0.3% Triton X-100), Met antibody (C-28, dilution 1:50), GFP antibody (sc-101525, dilution 1:50) or antibody (5 μg/ml) over night or VFF18 (5 μg/ml) o/n at 4° C. After washing in PBS the sections were incubated with Alexa Fluor R 546 goat anti-rabbit (in case of immunofluorescence P-Met and Met staining, dilution 1:500) or a biotinylated secondary antibody (for immunohistochemical stainings rabbit anti-rat antibody for VFF18 and CD31, goat anti-rabbit for P-Met, cleaved Caspase-3 and cleaved Caspase-8 and rabbit anti-mouse for GFP, dilution 1:500) for 45 minutes. For DAB (3,3′-diaminobenzidine) staining the sections were treated with a streptavidin-peroxidase conjugate (Dako, Glostrup, Denmark) and developed with DAB substrate system (3,3′-diaminobenzidine; Biozol, Eching, Germany) For immunofluorescence DAPI was used for nuclear staining.
The three CD44v6 specific compounds (v6 5mer, PEG840-v6 5mer and PEG2000-v6 5mer of human origin) and a control peptide were applied in three concentrations (2 μg, 20 μg, 200 μg per injection) three times per week i.p. for 4 weeks. One week before start of the treatment the L3.6p1 tumor cells were orthotopically implanted into nude mice.
Animals were implanted orthotopically with L3.6p1 cells. Tumor growth was allowed for one week before the treatment with the linear v6 14mer, the cyclic v6 8mer as well as the control peptide (rat v6 14mer) was started. All peptides were injected three times per week at a concentration of 0.2, 2 and 10 μg per injection for 3 weeks. At the end of the treatment animals were sacrificed.
A comparison of different CD44v6 peptide derivatives was performed in animals bearing a orthotopic L3.6p1 tumor. 10 groups of 5 animals each received a dose of 20 μg peptide per injection three times per week for 3 weeks with the compounds listed in Table 4. Three weeks after starting the treatment the animals were sacrificed and analyzed for macroscopic metastases and tumor volume.

[2] = system: Met activation and downstream signaling to ERK; experiment: HGF-induced activation of Met and ERK in L3.6p1 cells (western blot); type: cell-based, human; settings: HGF 10 ng/ml
Method: Serum-starved cells (24 hours) were induced with the growth factor HGF (10 ng/mL) at 37° C. for 5 minutes. Where indicated, the cells were treated with peptides (100 ng/ml) prior to induction at 37° C. for 10 minutes (100 ng/mL CD44v6 peptide or control peptide). Following the induction with HGF, cells were washed with ice-cold phosphate-buffered saline (PBS). To detect activated Met and Erk, cells were lysed in sodium dodecyl sulfate (SDS)-sample buffer containing 100 mM dithiothreitol (DTT), boiled and subjected to western blot analysis using antibodies against phospho-Met and ERK. The loading controls were performed on the same blot after stripping (62.5 mM Tris, pH 6.8, 2% SDS, 0.8% DTT) by probing with the Met respectively ERK antibody. Blots were stained using the enhanced chemiluminescence system (Thermo Fisher Scientific, Schwerte, Germany). Bands in western blot analysis were quantified with the program Image J (National Institutes of Health).
To expand the studies to human pancreatic tumors, the highly metastatic human pancreatic carcinoma cells L3.6p1 (Bruns, et al. Neoplasia (1999), 1(1):50-62) were investigated. These cells originate from the […] cells that have been passaged several times in the liver and the pancreas, a step that rendered them more and more metastatic. It was confirmed that Met is dependent on CD44v6 for its activation and signaling in these cells (FIG. 4A). The L3.6p1 cells were treated with HGF in the presence or absence of a human v6 peptide of SEQ ID NO: 2 or SEQ ID NO:6 and Met activation and downstream signaling to ERK was measured.

BSp73ASs6 cells = experiment: Rat syngeneic model, subcutaneous BSp73ASs6 tumors, metastasis formation; type: in vivo; settings: 200 μg per injection three times a week; for outgrowth of primary tumors: 28 days; for metastasis (axillary lymph nodes and lungs): intra-tumoral or intravenously, start one week after cell injection
Method: In the case of the rat syngeneic model, 1×10^6 pancreatic cells (BSp73AS and its transfectants) were subcutaneously injected into the right posterior flank of the animals. Tumors developed for four weeks. During this time period animals injected with BSp73ASs6 cells expressing Met-shRNA or control-shRNA received doxycycline in the drinking water. At the end of the experiment, primary tumors were isolated. Lungs and axillary lymph nodes were analyzed. The tissues were incubated for 24 h in a zinc-fixative (0.5 g calcium acetate, 5.0 g zinc acetate, 5.0 g zinc chloride, in 1 L 0.1 M Tris pH 7.4) and embedded in paraffin for further analysis. In case of peptide or antibody treatment tumors developed for one week before the first treatment. Where indicated, animals received 200 μg of peptide or antibody per injection three times per week for four weeks. Tumor growth was monitored weekly using a caliper Animals were killed at day 28 or 30 after start of the treatment.
For histomorphological analysis paraffin-embedded sections of lungs were stained with hematoxylin and eosin and periodic acid-Schiff (H&E or PAS). Serial sections of the whole tissue blocks were examined by analyzing slices every 20 μm; in each slice, the presence and the extension of the metastatic deposit was assessed, according to the procedure routinely used by pathologists to evaluate the presence of micrometastases.
Rat peptides had the sequences KEKWFENEWQGKNP (SEQ ID NO: 10) and NEWQG (SEQ ID NO: 11). BSp73ASs6 cells were subcutaneously injected into syngeneic rats and rat CD44v6 peptides of SEQ ID NO: 10 or SEQ ID NO: 11 (or mouse control peptides) or the CD44v6 antibody (or IgGs as a control) were injected intra-tumoral or intravenously three times a week. […] This is compatible with the fact that also BSp73AS cells or BSp73ASv1-10Δv6 cells can induce the formation of primary tumors similarly to the v6 transfectants.

[3] = system: BSp73ASs6 lung metastases; experiment: Apoptosis in established lung metastases (cleaved Caspase-3 and Caspase-8 staining); type: in vivo, rat; settings: for apoptotic cells in lung metastases (cleaved Caspase 3): injection every second day from three weeks after cell injection
Method: as §1
One hypothesis for the disappearance of metastases is that the peptides induce apoptosis of CD44v6-expressing metastatic cells in the secondary organs. In order to test this hypothesis, the experiment described above using the BSp73ASs6 cells was repeated. The cells were injected subcutaneously in syngeneic rats and the tumor was allowed to develop for three weeks. After that time the animals were separated in two groups of 10 animals that were injected either with the specific rat CD44v6 peptide or with the control peptide (mouse) every second day. One day following each injection of the peptide, the lungs of one animal were removed and apoptosis was measured using an antibody that detects the cleaved form of Caspase 3. […] From these experiments, it is concluded that the CD44v6 peptide induces apoptosis of metastatic cells.
To discriminate whether the intrinsic pathway characterized by the release of mitochondrial proteins or the extrinsic pathway activated by ligand-bound death receptors for apoptosis was induced by the v6 peptide the expression of cleaved caspase-8 in the metastases treated with the v6 peptide was investigated. […] From these experiments we conclude that the CD44v6 peptide induces apoptosis of metastatic cells via the extrinsic apoptotic pathway.

[4] = listed as rat-specific peptide (ctrl peptide)

NRWHE [human 5mer, NRWHE]
side effects in the animals ([1]; 200 μg per injection i.p. three times per week for 4 weeks): did not lead to side effects

{DOTA}-KEQWFGNRWHEGYR [DOTA CD44v6-14 [r^14]]
metastasis formation (liver) [1]: complete inhibition of metastasis

PEG2000-KEQWFGNRWHEGYR-OH [PEG2000 14-mer]
outgrowth / size of the primary tumor [1]: strongest reduction of tumor size
outgrowth / size of the primary tumor ([1]; listed as PEGylated 14mer (PEG 2000)): significant reduction in tumor growth
metastasis formation (liver) [1]: decrease of metastatic spreading

Myr-Y-cy[KGNRWHEG] (Myristoyl-YKGNRWHEG; also: cyclic, closure not given here, Myr-Tyr attached, site not given here) [Myr-Y-cycl 8 mer]
outgrowth / size of the primary tumor [1]: significant reduction in tumor growth
metastasis formation (liver) [1]: decrease of metastatic spreading

DOTA-keqwfGNRWHEGyr [DOTA CD44v6-14 [daa7]]
metastasis formation (liver) [1]: decrease of metastatic spreading

Myr-KEQWFGNRWHEGYR (Myristoyl-KEQWFGNRWHEGYR) [Myristoyl-14-mer]
outgrowth / size of the primary tumor [1]: no inhibitory effect on tumor growth

PEG840-KEQWFGNRWHEGYR-OH [PEG840 14-mer]
outgrowth / size of the primary tumor [1]: significant reduction in tumor growth
metastasis formation (liver) [1]: decrease of metastatic spreading

NEWQG [rat 5mer, rat CD44v6 5mer peptide]
inhibition of HGF-induced activation (phosphorylation) of Met and ERK [2]: had no influence on receptor activation and signal transduction
metastasis and micro-metastasis in lung sections (PAS and H&E staining) (BSp73ASs6 cells): neither metastasis nor micro-metastasis could be detected
outgrowth of primary tumors (BSp73ASs6 cells): not influenced by either treatment
metastasis (axillary lymph nodes and lungs) (BSp73ASs6 cells): completely inhibited metastasis
results in the human orthotopic model compared with the 14mer peptides ([1]; 20 μg i.p. three times per week for 21 days): same results as for the 14mer peptides were observed

DOTA-cy[KRWHE] [cycl 5 mer]
outgrowth / size of the primary tumor [1]: strongest reduction of tumor size
metastasis formation (liver) [1]: complete inhibition of metastasis

KEKWFENEWQGKNP [rat 14mer, rat CD44v6 14mer peptide; control in human systems]
inhibition of HGF-induced activation (phosphorylation) of Met and ERK [2]: had no influence on receptor activation and signal transduction
metastasis and micro-metastasis in lung sections (PAS and H&E staining) (BSp73ASs6 cells): neither metastasis nor micro-metastasis could be detected
outgrowth of primary tumors (BSp73ASs6 cells): not influenced by either treatment
metastasis (axillary lymph nodes and lungs) (BSp73ASs6 cells): completely inhibited metastasis
apoptosis twelve days after injection ([3]; cleaved Caspase 3): less apoptosis was observed
time of maximum of apoptosis ([3]; cleaved Caspase 3, injection every second day): eight days after the first injection
cleaved caspase-8 in lung metastases ([3]; injection every second day): kinetic of activation of caspase-8 similar to the one obtained for caspase-3
lung metastasis at day twenty-two ([3]; injection every second day): no metastasis could be detected anymore
apoptotic cells in lung metastases (cleaved Caspase 3) [3]: detected as early as three days after the first injection
outgrowth / size of the primary tumor [1, 4]: had no influence on metastasis formation or on growth of the primary tumor
metastasis formation (liver) [1, 4]: neither any influence on metastasis formation; also recorded: had no influence on metastasis formation or on growth of the primary tumor

mouse control peptides: mouse CD44v6 peptide used as control in the rat system (WFQNGWQGKNP) [reference compound]
metastasis (axillary lymph nodes and lungs) (BSp73ASs6 cells): numerous metastases were detected in the lungs
lung metastasis at day twenty-two ([3]; injection every second day): metastatic spreading was evident in the lungs
apoptotic cells in lung metastases (cleaved Caspase 3) [3]: No apoptosis at all was detected
